# Assay results reported in patent publication US12257237B2 (priority 2017, dated 2025).
# Values joined by “and” are separate entries in the source; they are usually repeats but may differ in a detail not shown here. Identical values can stand only once.
# Experiments:
# TC-71 Ewing sarcoma = test: Antitumour activity in TC-71 Ewing sarcoma xenograft model; assay type: in vivo, Athymic nude mice
# Procedure: (§1) Experiments were performed with female Athymic nude mice, 9-10 weeks old obtained from Harlan Laboratories (Udine, Italy). They were maintained under Specific Pathogen Free conditions with constant temperature and humidity, according to the institutional guidelines.
# (§2) Tumour growth mice was monitored two/three times a week (depending on tumour growth rate, to avoid unnecessary stress to the animals) by Vernier caliper. Mice were sacrificed when tumour reached a mean weight of 2±0.5 gr. The antitumour activity will be expressed as T/C %, where T and C were the mean tumour weight of treated and control groups, respectively. Mice were monitored daily and weighted at least two times a week. Tolerability was evaluated on the basis of body weight loss (BWL) and clinical observation.
# Statistical analysis was performed with GraphPad Prism version 6.01 software (GraphPad software, Inc., La Jolla, CA, USA). ANOVA test was performed to evaluate if there were statistically significant differences between treated and control groups.
# 5×10^6 TC-71 cells were inoculated subcutaneously in the right flank of mice. The growing tumour masses were measured with the aid of a Vernier caliper, and the tumour weights (1 mm^3=1 mg) were calculated by the formula: length×(width) 2/2. When tumour load achieved about 100 mg, mice were randomized into the experimental groups and treatment started.
# [1] = Drug tolerability (body weight) in TC-71 Ewing sarcoma xenograft model; assay type: in vivo, Athymic nude mice; details: Irinotecan 50 mg/kg; for BWL %: negative = loss vs day 9
# Procedure: as §1, §2
# [2] = 50 mg/kg i.v. q7dx3, day 9 from inoculum
# [3] = 50 mg/kg i.v. q7dx3, day 11 from inoculum
# [4] = 50 mg/kg i.v. q7dx3, day 14 from inoculum
# [5] = 50 mg/kg i.v. q7dx3, day 16 from inoculum
# [6] = 50 mg/kg i.v. q7dx3, day 18 from inoculum
# [7] = 50 mg/kg i.v. q7dx3, day 21 from inoculum
# [8] = 50 mg/kg i.v. q7dx3, day 23 from inoculum
# [9] = 50 mg/kg i.v. q7dx3, day 25 from inoculum
# [10] = 50 mg/kg i.v. q7dx3, day 28 from inoculum
# [11] = 50 mg/kg i.v. q7dx3, day 30 from inoculum
# [12] = 50 mg/kg i.v. q7dx3, day 32 from inoculum
# [13] = 50 mg/kg i.v. q7dx3, day 35 from inoculum
# [14] = 50 mg/kg i.v. q7dx3, day 38 from inoculum
# [15] = 50 mg/kg i.v. q7dx3, day 42 from inoculum
# [16] = 50 mg/kg i.v. q7dx3, day 45 from inoculum
# [17] = 50 mg/kg i.v. q7dx3, day 49 from inoculum
# [18] = 50 mg/kg i.v. q7dx3, day 53 from inoculum
# [19] = day 9 from tumour inoculum (treatment start)
compound,measurement,setting,value
"CCc1c2c(nc3ccc(OC(=O)N4CCC(N5CCCCC5)CC4)cc13)-c1cc3c(c(=O)n1C2)COC(=O)[C@]3(O)CC [Irinotecan, reference compound]","TC-71 tumour weight, individual mice",TC-71 Ewing sarcoma; [2],316.8 mg and 124.6 mg and 103.5 mg and 88.1 mg
same,"TC-71 tumour weight, mean",TC-71 Ewing sarcoma; [2],106.4 mg
same,"TC-71 tumour weight, individual mice",TC-71 Ewing sarcoma; [3],90.6 mg and 45.7 mg and 63.3 mg
same,"TC-71 tumour weight, mean",TC-71 Ewing sarcoma; [3],76.4 mg
same,"TC-71 tumour weight, individual mice",TC-71 Ewing sarcoma; [4],87.8 mg and 16.6 mg and 9.9 mg and 17.1 mg
same,"TC-71 tumour weight, mean",TC-71 Ewing sarcoma; [4],22.6 mg
same,"TC-71 tumour weight, individual mice",TC-71 Ewing sarcoma; [5],99.6 mg and 41.5 mg and 23.8 mg and 72.8 mg
same,"TC-71 tumour weight, mean",TC-71 Ewing sarcoma; [5],35.0 mg
same,"TC-71 tumour weight, individual mice",TC-71 Ewing sarcoma; [6],44.2 mg and 11.3 mg and 8.8 mg and 28.1 mg
same,"TC-71 tumour weight, mean",TC-71 Ewing sarcoma; [6],14.8 mg
same,optimal T/C,"TC-71 Ewing sarcoma; 50 mg/kg i.v. q7dx3, day 21",0.4%
same,"TC-71 tumour weight, individual mice",TC-71 Ewing sarcoma; [7],9.6 mg and 2.4 mg and 6.1 mg and 7.5 mg
same,"TC-71 tumour weight, mean",TC-71 Ewing sarcoma; [7],6.1 mg
same,"TC-71 tumour weight, individual mice",TC-71 Ewing sarcoma; [8],1.7 mg and 5.4 mg
same,"TC-71 tumour weight, mean",TC-71 Ewing sarcoma; [8],7.0 mg
same,"TC-71 tumour weight, individual mice",TC-71 Ewing sarcoma; [9],9.9 mg and 3.3 mg
same,"TC-71 tumour weight, mean",TC-71 Ewing sarcoma; [9],5.9 mg
same,"TC-71 tumour weight, individual mice",TC-71 Ewing sarcoma; [10],6.8 mg and 1.5 mg and 3.3 mg and 2.5 mg
same,"TC-71 tumour weight, mean",TC-71 Ewing sarcoma; [10],3.5 mg
same,"TC-71 tumour weight, individual mice",TC-71 Ewing sarcoma; [11],15.4 mg and 2.7 mg and 3.8 mg and 2.6 mg
same,"TC-71 tumour weight, mean",TC-71 Ewing sarcoma; [11],6.1 mg
same,"TC-71 tumour weight, individual mice",TC-71 Ewing sarcoma; [12],83.7 mg and 8.2 mg and 12.1 mg and 9.2 mg
same,"TC-71 tumour weight, mean",TC-71 Ewing sarcoma; [12],28.3 mg
same,"TC-71 tumour weight, individual mice",TC-71 Ewing sarcoma; [13],223.4 mg and 42.7 mg and 36.0 mg and 53.8 mg
same,"TC-71 tumour weight, mean",TC-71 Ewing sarcoma; [13],88.9 mg
same,"TC-71 tumour weight, individual mice",TC-71 Ewing sarcoma; [14],713.8 mg and 105.6 mg and 74.5 mg and 145.5 mg
same,"TC-71 tumour weight, mean",TC-71 Ewing sarcoma; [14],259.8 mg
same,"TC-71 tumour weight, individual mice",TC-71 Ewing sarcoma; [15],2687.8 mg and 327.2 mg and 346.6 mg and 199.0 mg
same,"TC-71 tumour weight, mean",TC-71 Ewing sarcoma; [15],890.2 mg
same,"TC-71 tumour weight, individual mice",TC-71 Ewing sarcoma; [16],2443.2 mg and 627.6 mg and 589.7 mg and 305.0 mg
same,"TC-71 tumour weight, mean",TC-71 Ewing sarcoma; [16],991.4 mg
same,"TC-71 tumour weight, individual mice",TC-71 Ewing sarcoma; [17],2887.4 mg and 1184.6 mg and 1244.3 mg and 316.1 mg
same,"TC-71 tumour weight, mean",TC-71 Ewing sarcoma; [17],1408.1 mg
same,"TC-71 tumour weight, individual mice",TC-71 Ewing sarcoma; [18],3331.8 mg and 1062.6 mg and 2135.1 mg and 308.0 mg
same,"TC-71 tumour weight, mean",TC-71 Ewing sarcoma; [18],1709.4 mg
same,mice exhibiting sustained CR up to the conclusion of the experiment,TC-71 Ewing sarcoma; 50 mg/kg q7dx3,4 mice
same,tumour regression,TC-71 Ewing sarcoma; 50 mg/kg q7dx3,tumour regression in all mice
same,"Mouse body weight, group Mean",[1]; [19],27.4 g
same,BWL %,[1]; [19],0.0%
same,"Mouse body weight, group Mean",[1]; day 10 from tumour inoculum,25.8 g
same,BWL %,[1]; day 10 from tumour inoculum,−6.1%
same,"Mouse body weight, group Mean",[1]; day 11 from tumour inoculum,25.6 g
same,BWL %,[1]; day 11 from tumour inoculum,−6.6%
same,"Mouse body weight, group Mean",[1]; day 14 from tumour inoculum,26.9 g
same,BWL %,[1]; day 14 from tumour inoculum,−1.9%
same,"Mouse body weight, group Mean",[1]; day 16 from tumour inoculum,27.0 g
same,BWL %,[1]; day 16 from tumour inoculum,−1.7%
same,"Mouse body weight, group Mean",[1]; day 18 from tumour inoculum,26.0 g
same,BWL %,[1]; day 18 from tumour inoculum,−5.3%
same,"Mouse body weight, group Mean",[1]; day 21 from tumour inoculum,26.2 g
same,BWL %,[1]; day 21 from tumour inoculum,−4.3%
same,"Mouse body weight, group Mean",[1]; day 23 from tumour inoculum,26.5 g
same,BWL %,[1]; day 23 from tumour inoculum,−3.5%
same,"Mouse body weight, group Mean",[1]; day 25 from tumour inoculum,25.4 g
same,BWL %,[1]; day 25 from tumour inoculum,−7.5%
same,"Mouse body weight, group Mean",[1]; day 28 from tumour inoculum,26.4 g
same,BWL %,[1]; day 28 from tumour inoculum,−3.9%
same,"Mouse body weight, group Mean",[1]; day 30 from tumour inoculum,27.1 g
same,BWL %,[1]; day 30 from tumour inoculum,−1.1%
same,"Mouse body weight, group Mean",[1]; day 32 from tumour inoculum,27.0 g
same,BWL %,[1]; day 32 from tumour inoculum,−1.6%
same,"Mouse body weight, group Mean",[1]; day 35 from tumour inoculum,27.9 g
same,BWL %,[1]; day 35 from tumour inoculum,1.7%
same,"Mouse body weight, group Mean",[1]; day 38 from tumour inoculum,27.2 g
same,BWL %,[1]; day 38 from tumour inoculum,−0.7%
same,"Mouse body weight, group Mean",[1]; day 42 from tumour inoculum,28.4 g
same,BWL %,[1]; day 42 from tumour inoculum,3.5%
same,"Mouse body weight, group Mean",[1]; day 46 from tumour inoculum,27.8 g
same,BWL %,[1]; day 46 from tumour inoculum,1.5%
same,"Mouse body weight, group Mean",[1]; day 49 from tumour inoculum,28.4 g
same,BWL %,[1]; day 49 from tumour inoculum,3.6%
same,"Mouse body weight, group Mean",[1]; day 53 from tumour inoculum,28.1 g
same,BWL %,[1]; day 53 from tumour inoculum,2.3%
